ChEMBL document CHEMBL4619790, “Design and Development of a Macrocyclic Series Targeting Phosphoinositide 3-Kinase δ” (ACS Med Chem Lett, 2020)

How the values were obtained:
[1] = Volume of distribution at steady state in iv dosed rat; type: ADME, organism-based; conditions: in vivo, read-out: Vdss
[2] = Unbound clearance in iv dosed rat; type: ADME, organism-based; conditions: in vivo
[3] = Stability in minipig Hepatocyte assessed as clearance; type: ADME, cell-based, Sus scrofa; conditions: pig, hepatocytes; read-out: CLH
[4] = Solubility of the compound by CLND method; type: physicochemical
[5] = Stability in minipig microsomes assessed as clearance; type: ADME, Sus scrofa, Microsome; conditions: pig
[6] = Clearance in iv dosed rat; type: ADME, organism-based; conditions: in vivo
[7] = Lipophilicity, log D of the compound at pH 7.4 by chromatographic method; type: physicochemical; conditions: buffer
[8] = Permeability of the compound by PAMPA; type: ADME; conditions: read-out: permeability
[9] = Dissociation constant, pKa of compound; type: physicochemical
[10] = Half life in iv dosed rat; type: ADME, organism-based; conditions: in vivo

COc1ncc2cc1NS(=O)(=O)CCN(C)Cc1ccc3c(c1)N2CCO3
Vd [1]: 1.8 L/kg
CL free [2]: 192 mL/min/kg
CLint scaled [3]: < 0.89 mL/min/kg
solubility kinetic [4]: ≥ 331 µM
CLint scaled [5]: 0.92 mL/min/kg
clearance [6]: 12.3 mL/min/kg
chromatographic logD [7]: 4.3
Papp [8]: 53 ×10⁻⁶ cm/s
pKa [9]: 5.7
half-life [10]: 1.5 h

COc1ncc(N2CCOc3ccc(CN(C)C)cc32)cc1NS(C)(=O)=O
Vd [1]: 8.5 L/kg
CL free [2]: 587 mL/min/kg
CLint scaled [3]: < 0.89 mL/min/kg
solubility kinetic [4]: ≥ 406 µM
CLint scaled [5]: 1.63 mL/min/kg
clearance [6]: 233 mL/min/kg
chromatographic logD [7]: 1.6
Papp [8]: 14 ×10⁻⁶ cm/s
pKa [9]: 9.4
half-life [10]: 0.6 h
